Source: patent US11759462B2, “Spirocyclic compounds as tryptophan hydroxylase inhibitors” (priority 2013, dated 2023)

System: jejunal mucosal 5-HT in mice (C57 BL6)
Assay: Intestinal 5-HT depletion assay (Example B, single 150 mg/kg oral dose)
Format: in vivo, mouse
Conditions: one day after oral administration of a single 150 mg/kg dose, P-value class (ANOVA)
Description: The efficacy of the TPH1 inhibitors of the invention was assessed for the ability to decrease intestinal serotonin concentration in mice. Mice (C57 BL6) were administered a single 150 mg/kg dose of test article by oral gavage. Each animal was euthanized by exsanguination under isoflurane anesthesia. Jejunal intestinal mucosa was isolated and homogenized in 300 μL of a buffer containing 0.3M trichloroacetic acid, 0.1M sodium acetate, 10 mM EDTA, 20 mM sodium bisulfate and 50 mM ascorbic acid. Following centrifugation the 5-HT levels in the supernatants were measured by HPLC. The remaining mucosal pellet was solubilized overnight at 37° C. in a 0.1% sodium dodecyl sulfate buffer in 0.1N NaOH followed by determination of protein concentrations using a BCA protein assay (Pierce, Rockford, Ill. 5-HT levels were normalized to protein and data were expressed as mean percent reduction of mucosal 5-HT levels relative to vehicle control SEM (percent 5-HT reduction). All animal studies were carried out with protocols approved by the Institutional Animal Care and Use Committee.
P-values, indicating statistical significance of the data (ANOVA) are provided in the table: * refers to P<0.05, ** refers to P<0.01, *** refers to P<0.005, and refers to P<0.0005.

Molecule | Efficacy (statistical significance of reduction of mucosal 5-HT concentrations relative to vehicle)
(S)-isopropyl 8-(2-amino-6-((R)-1-(4-chloro-2-(3-methyl- 1H-pyrazol-1-yl)phenyl)-2,2,2-trifluoroethoxy)pyrimidin- 4-yl)-2,8-diazaspiro[4.5]decane-3-carboxylate [Example 64h] | ** (** refers to P<0.01)
CCOC(=O)[C@@H]1CC2(CCN(c3cc(O[C@H](c4ccc(-c5cccc(OC)c5)cc4)C(F)(F)F)nc(N)n3)CC2)CN1 [Example 63ba, (S)-ethyl 8-(2-amino-6-((R)-2,2,2-trifluoro-1-(3′-methoxy-[1,1′-biphenyl]-4-yl)ethoxy)pyrimidin-4-yl)-2,8-diazaspiro[4.5]decane-3-carboxylate] | *** (*** refers to P<0.005)
CCOC(=O)[C@@H]1CC2(CCN(c3cc(O[C@H](c4ccc(CC)cc4-n4ccc(C)n4)C(F)(F)F)nc(N)n3)CC2)CN1 [Example 63be, (S)-ethyl 8-(2-amino-6-((R)-1-(4-ethyl-2-(3-methyl-1H-pyrazol-1-yl)phenyl)-2,2,2-trifluoroethoxy)pyrimidin-4-yl)-2,8-diazaspiro[4.5]decane-3-carboxylate] | *** (*** refers to P<0.005)
Cc1ccn(-c2cc(Cl)ccc2[C@@H](Oc2cc(N3CCC4(CC3)CN[C@H](C(=O)OCCOC(=O)[C@H](N)C(C)C)C4)nc(N)n2)C(F)(F)F)n1 [Example 66c, (S)-2-(((R)-2-amino-3-methylbutanoyl)oxy)ethyl 8-(2-amino-6-((R)-1-(4-chloro-2-(3-methyl-1H-pyrazol-1-yl)phenyl)-2,2,2-trifluoroethoxy)pyrimidin-4-yl)-2,8-diazaspiro[4.5]decane-3-carboxylate] | **** (and refers to P<0.0005)
CCCOC(=O)[C@@H]1CC2(CCN(c3cc(O[C@H](c4ccc(Cl)cc4-n4ccc(C)n4)C(F)(F)F)nc(N)n3)CC2)CN1 [Example 64e, (S)-propyl 8-(2-amino-6-((R)-1-(4-chloro-2-(3-methyl-1H-pyrazol-1-yl)phenyl)-2,2,2-trifluoroethoxy)pyrimidin-4-yl)-2,8-diazaspiro[4.5]decane-3-carboxylate] | **** (and refers to P<0.0005)
CCCCOC(=O)[C@@H]1CC2(CCN(c3cc(O[C@H](c4ccc(Cl)cc4-n4ccc(C)n4)C(F)(F)F)nc(N)n3)CC2)CN1 [Example 64g, (S)-butyl 8-(2-amino-6-((R)-1-(4-chloro-2-(3-methyl-1H-pyrazol-1-yl)phenyl)-2,2,2-trifluoroethoxy)pyrimidin-4-yl)-2,8-diazaspiro[4.5]decane-3-carboxylate] | * (* refers to P<0.05)
(S)-2-(pivaloyloxy)ethyl 8-(2-amino-6- ((R)-1-(4-chloro-2-(3-methyl-1H-pyrazol- 1-yl)phenyl)-2,2,2- trifluoroethoxy)pyrimidin-4-yl)-2,8- diazaspiro[4.5]decane-3-carboxylate [Example 66d] | **** (and refers to P<0.0005)
CCOC(=O)c1cccc(-c2ccc([C@@H](Oc3cc(N4CCC5(CC4)CN[C@H](C(=O)O)C5)nc(N)n3)C(F)(F)F)c(-n3ccc(C)n3)c2)c1 [Example 5] | ** (** refers to P<0.01)
Nc1nc(O[C@H](c2ccc(Cl)cc2-c2ccccc2)C(F)(F)F)cc(N2CCC3(CC2)CN[C@H](C(=O)O)C3)n1 [Example 34r, (S)-8-(2-amino-6-((R)-1-(5-chloro-[1,1′-biphenyl]-2-yl)-2,2,2-trifluoroethoxy)pyrimidin-4-yl)-2,8-diazaspiro[4.5]decane-3-carboxylic acid] | *** (*** refers to P<0.005)
Cc1ccn(-c2cc(C(F)(F)F)ccc2[C@@H](Oc2cc(N3CCC4(CC3)CN[C@H](C(=O)O)C4)nc(N)n2)C(F)(F)F)n1 [Example 10g, (S)-8-(2-amino-6-((R)-2,2,2-trifluoro-1-(2-(3-methyl-1H-pyrazol-1-yl)-4-(trifluoromethyl)phenyl)ethoxy)pyrimidin-4-yl)-2,8-diazaspiro[4.5]decane-3-carboxylic acid] | ** (** refers to P<0.01)
Cc1ccn(-c2cc(Cl)ccc2[C@@H](Oc2cc(N3CCC4(CC3)CN[C@H](C(=O)OC(C)(C)C)C4)nc(N)n2)C(F)(F)F)n1 [Example 65a, (S)-Tert-butyl 8-(2-amino-6-((R)-1-(4-chloro-2-(3-methyl-1H-pyrazol-1-yl)phenyl)-2,2,2-trifluoroethoxy)pyrimidin-4-yl)-2,8-diazaspiro[4.5]decane-3-carboxylate] | **** (and refers to P<0.0005)
CCOC(=O)[C@@H]1CC2(CCN(c3cc(O[C@H](c4ccc(-c5ccc(CNC(C)=O)cc5)cc4-n4ccc(C)n4)C(F)(F)F)nc(N)n3)CC2)CN1 [Example 63cp, (S)-ethyl 8-(6-((R)-1-(4′-(acetamidomethyl)-3-(3-methyl-1H-pyrazol-1-yl)-[1,1′-biphenyl]-4-yl)-2,2,2-trifluoroethoxy)-2-aminopyrimidin-4-yl)-2,8-diazaspiro[4.5]decane-3-carboxylate] | *** (*** refers to P<0.005)
Cc1ccn(-c2cc(Cl)ccc2[C@@H](Oc2cc(N3CCC4(CC3)CN[C@H](C(=O)O)C4)nc(C)n2)C(F)(F)F)n1 [Example 28, (S)-8-(6-((R)-1-(4-chloro-2-(3-methyl-H-pyrazol-1-yl)phenyl)-2,2,2-trifluoroethoxy)-2-methylpyrimidin-4-yl)-2,8-diazaspiro[4.5]decane-3-carboxylic acid] | * (* refers to P<0.05)
CCOC(=O)c1ccc(-n2ccc(C)n2)c([C@@H](Oc2cc(N3CCC4(CC3)CN[C@H](C(=O)OCC)C4)nc(N)n2)C(F)(F)F)c1 [Example 63bh, (S)-ethyl 8-(2-amino-6-((R)-1-(5-(ethoxycarbonyl)-2-(3-methyl-1H-pyrazol-1-yl)phenyl)-2,2,2-trifluoroethoxy)pyrimidin-4-yl)-2,8-diazaspiro[4.5]decane-3-carboxylate] | ** (** refers to P<0.01)
Cc1ccn(-c2cc(-c3cccnc3)ccc2[C@@H](Oc2cc(N3CCC4(CC3)CN[C@H](C(=O)O)C4)nc(C)n2)C(F)(F)F)n1 [Example 29z, (S)-8-(2-methyl-6-((R)-2,2,2-trifluoro-1-(2-(3-methyl-1H-pyrazol-1-yl)-4-(pyridin-3-yl)phenyl)ethoxy)pyrimidin-4-yl)-2,8-diazaspiro[4.5]decane-3-carboxylic acid] | ** (** refers to P<0.01)
CCOC(=O)C1CC2(CCN(c3cc(O[C@H](c4ccc(Cl)cc4-n4ccc(C)n4)C(F)(F)F)nc(N)n3)CC2)CN1 (stereo partly drawn) [Example 63ay, ethyl 8-(2-amino-6-((R)-1-(4-chloro-2-(3-methyl-1H-pyrazol-1-yl)phenyl)-2,2,2-trifluoroethoxy)pyrimidin-4-yl)-2,8-diazaspiro[4.5]decane-3-carboxylate] | *** (*** refers to P<0.005)
CCOC(=O)[C@@H]1CC2(CCN(c3cc(O[C@H](c4ccc(-c5ccc6c(c5)CCNC6=O)cc4)C(F)(F)F)nc(N)n3)CC2)CN1 [Example 63bx, (S)-ethyl 8-(2-amino-6-((R)-2,2,2-trifluoro-1-(4-(1-oxo-1,2,3,4-tetrahydroisoquinolin-6-yl)phenyl)ethoxy)pyrimidin-4-yl)-2,8-diazaspiro[4.5]decane-3-carboxylate] | *** (*** refers to P<0.005)
CCOC(=O)c1ccccc1-c1ccc(-n2ccc(C)n2)c([C@@H](Oc2cc(N3CCC4(CC3)CN[C@H](C(=O)OCC)C4)nc(N)n2)C(F)(F)F)c1 [Example 63da, (S)-ethyl 8-(2-amino-6-((R)-1-(2′-(ethoxycarbonyl)-4-(3-methyl-1H-pyrazol-1-yl)-[1,1′-biphenyl]-3-yl)-2,2,2-trifluoroethoxy)pyrimidin-4-yl)-2,8-diazaspiro[4.5]decane-3-carboxylate] | *** (*** refers to P<0.005)
Cc1ccn(-c2cc(Cl)ccc2[C@@H](Oc2cc(N3CCC4(CC3)CNC(C(=O)O)C4)nc(NC3CCCCC3)n2)C(F)(F)F)n1 (stereo partly drawn) [Example 31, 8-(6-((R)-1-(4-chloro-2-(3-methyl-H-pyrazol-1-yl)phenyl)-2,2,2-trifluoroethoxy)-2-(cyclohexylamino)pyrimidin-4-yl)-2,8-diazaspiro[4.5]decane-3-carboxylic acid] | * (* refers to P<0.05)
CCOC(=O)c1ccc([C@@H](Oc2cc(N3CCC4(CC3)CN[C@H](C(=O)OCC)C4)nc(N)n2)C(F)(F)F)c(-n2ccc(C)n2)c1 [Example 63bi, (S)-ethyl 8-(2-amino-6-((R)-1-(4-(ethoxycarbonyl)-2-(3-methyl-1H-pyrazol-1-yl)phenyl)-2,2,2-trifluoroethoxy)pyrimidin-4-yl)-2,8-diazaspiro[4.5]decane-3-carboxylate] | ** (** refers to P<0.01)
